The record followed here is patent publication US20120214824A1, “PROTEOSTASIS REGULATORS” (priority 2010, published 2012).

The subject of one assay is firefly luciferase. In words: Luciferase folding assay (Lucif.). Type of assay: cell-based, human. As to conditions: HeLa-luciferase cells. From the text: Firefly luciferase is a commonly used bioluminescent reporter. This monomeric enzyme of 61 kDa catalyzes a two-step oxidation reaction to yield light, usually in the green to yellow region, typically 550-570 nm. The first step of this reaction is activation of the luciferyl carboxylate by ATP to yield a reactive mixed anhydride. In the second step, the activated intermediate reacts with oxygen to create a transient dioxetane that breaks down to the oxidized products, oxyluciferin and CO2. Upon mixing with substrates, firefly luciferase produces an initial burst of light that decays over about 15 seconds to a low level of sustained luminescence. This kinetic profile reflects the slow release of the enzymatic product, thus limiting catalytic turnover after the initial reaction.
This mammalian cell based assay that used firefly luciferase as a sensor was used to screen for compounds that may modulate the cellular folding environment.
HeLa luciferase cell lines: Frozen bullets containing the cells were thawed briefly at 37° C. then placed into a T-150 flask containing 30-35 ml DMEM medium+Penicillin/Strep (1% final+10% FBS (final)+Geneticin @ 200-500 ug/ml. Cell cultures were maintained at 37° C. with 5% CO2 and water in the bottom of the incubator to keep cells healthy. Upon expanding cell line, luciferase measurements were taken to make sure that activity levels were between 2000-5000 (RLU) when plated at 15K/well in a 96-well format (Bright-Glo Promega) before compound treatment.
Compound treatment of HeLa-luciferase cells: HeLa-luciferase WT cells were plated in a 96-well format at 15K/well the day prior to performing compound treatment and/or luciferase assay. […] Final volume used per well was 90 uL. Flat bottom, white polystyrene plates were used for plating the cells.
For compound treatment, stocks of compounds were made up at 10 mM concentration in DMSO. Stocks compounds were diluted by 100× fold in the same media used for culturing the cells—this leads to a 0.1 mM (or 100 uM) concentration. After diluting the compound in media, 10 uL of the 100 uM solution was placed into each well of cells (90 uL); making the final concentration of the compound 10 uM. If serial dilutions of compounds were tested, serial dilutions of compounds were first made in DMSO accordingly, and further diluted in the media, prior to adding to cells. This procedure allowed for constant final levels of DMSO concentrations, regardless of initial compound concentration.
Performing luciferase activity assay: Bright-Glo Luciferase Assay Reagent (Promega cat #: E2610, E2620, E2650) was thawed out at RT in a water bath. Alternatively, Bright-Glo Luciferase assay buffer (prior to mixing with substrate) was stored overnight at RT, prior to using.
Following compound treatment, plates were removed from 37° C. and allowed to acclimate to RT for 5-10 min. Bright-Glo reagent was added to each cell-containing well in a 1:1 ratio (e.g., 100 uL of Bright Glo for each 100 uL cells).
Plates were placed on a plate shaker for 5 min, removing any air bubbles on the surface (which may interfere with proper reads), and then read on an EnVision 2104 Multilabel reader, Emission filter Luminescence 700, barcode 212, WL 400-700 nm.
Data for representative compounds in this assay are shown under the heading “Lucif.”

The subject of the next assay is BCL2. The assay is described as follows: Multigene assay (QuantiGene Plex 2.0), mouse MEF cell line. As to conditions: 6 hours post-compound treatment. Type of assay: cell-based. As to the method: (§1) This assay used the QuantiGene Plex 2.0 Reagent System from Affymetrix. This assay combines the use of bDNA (branch DNA) and xMAP magnetic capture beads from Luminex Technologies to quantitatively and simultaneously detect multiple mRNA transcripts per well. The overall procedure was performed according to the QuantiGene Plex 2.0 Reagent System instruction manual from Affymetrix.
(§2) Cells were seeded at a density of 12,000 cells/well in 96-well plates with an overnight incubation at 37° C., 5% CO2. Cells were treated with serially diluted compounds in a 7-point dose dependent manner. Cell lysis with 50% [v/v] Panomics Lysis Mixture (Lysis Mixture+10 μl/ml 25 Proteinase K) was performed 6 hours post-compound treatment. Lysed cells were heated at 50° C. to ensure appropriate lysing and the plates were then frozen at −80° C. Cell lysates, thawed at room temperature on the day of the assay, were pooled with mouse 8-gene multiplex probe sets and with 8 different sets of magnetic capture beads (Luminex Technology, Austin, Tex.) in a 100 μl/well volume. Biomek FX was used at every liquid transfer step. The eight plates containing lysate-probe-bead mixtures were incubated at 54° C.±1° C. on a shaking platform for an overnight incubation in the dark (18-20 hours). The following day the hybridization plates were compressed by transferring the hybridized lysates into a single magnetic capture plate. The plate was kept on a magnet to hold the beads and then washed with Panomics Wash Buffer 2.0 on a BioTek ELx405 select plate washer to remove any unbound sample. This step was followed by serial hybridizations and washings of the bDNA pre-amplifier (1 hour, 50° C.), bDNA amplifier (1 hour, 50° C.), label probe (1 hour, 50° C.), and streptavidin-phycoerythrin (SAPE, 30 minutes, room temperature). (Zhang, A. et al. Small interfering RNA and gene expression analysis using a multiplex branched DNA assay without RNA purification. J Biomol Screen 10, 549-56 (2005)). The plate was then washed with SAPE wash buffer to remove unbound SAPE and each well was analyzed with the Luminex FlexMap3D (Luminex, Austin, Tex.). SAPE fluorescence measured from each bead was proportional to the number of mRNA transcripts captured by the beads (Zheng, Z., Luo, Y. & McMaster, G. K. Sensitive and quantitative measurement of gene expression directly from a small amount of whole blood. Clin Chem 52, 1294-302 (2006)). Fold changes in gene expression were obtained for each gene per well by normalizing the raw data first to the DMSO control and then to a housekeeping gene (TBP-TATA binding protein or Tub1-alpha-tubulin).

A further assay concerns DDIT3. The description is as above. It is filed as cell-based. As to conditions: 6 hours post-compound treatment. As to the method:
as §1, §2

A further assay relates to GCLM. The assay is described as above. It is filed as cell-based. To be noted: 6 hours post-compound treatment. As to the method:
as §1, §2

In another assay the test system is HMOX. The description is as above. It is filed as cell-based. To be noted: 6 hours post-compound treatment. As to the method: as §1, §2
The subject of another assay is HSPA1a. The assay is described as above. It is filed as cell-based. As to conditions: 6 hours post-compound treatment. As to the method: as §1, §2
The next assay deals with HspA5. Described as above. Type of assay: cell-based. As to conditions: 6 hours post-compound treatment. As to the method: as §1, §2
The subject of the next assay is TUB1. The description is as above. As to conditions: 6 hours post-compound treatment. It is filed as cell-based. As to the method:
as §1, §2

With `CC1=C(C(=O)OCC(C)C)C(c2ccc(F)cc2)C2=C(CC(c3ccccc3)CC2=O)N1` (centres unmarked) [drawing 27/Me/COOCH2CHMe2/p-F/H], the “Lucif (luciferase activity induction)” value with firefly luciferase (Table 2a) is recorded as “+ (+ indicates a induction of greater than 2 fold)”. Moreover, the BCL2 gene induction entry in the assay on BCL2 (Table 2b) is “− (− Indicates less than 2 fold induction)”. Also, in the assay on DDIT3 (Table 2a), the DDIT3 gene induction result is reported as “− (− Indicates less than 2 fold induction)”. In the assay on GCLM (Table 2a), the GCLM gene induction entry is recorded as “− (− Indicates less than 2 fold induction)”. The HMOX gene induction entry in the assay with HMOX (Table 2b) is reported as “− (− Indicates less than 2 fold induction)”. In addition, in the assay with HSPA1a (Table 2b), the HSPA1a gene induction result was “− (− Indicates less than 2 fold induction)”. Also, in the assay with HspA5 (Table 2b), the HspA5 gene induction entry was “− (− Indicates less than 2 fold induction)”. In addition, in the assay with TUB1 (Table 2a), the TUB1 gene induction result is on record as “− (− Indicates less than 2 fold induction)”.

Regarding `CC(C)Oc1ccccc1C1C(C#N)=C(N)NC2=C1C(=O)CC(c1ccccc1)C2` (centres unmarked) [drawing 27/NH2/CN/o-OCHMe2/H], in the assay on firefly luciferase (Table 2a), the “Lucif (luciferase activity induction)” value was “+ (+ indicates a induction of greater than 2 fold)”. Moreover, the BCL2 gene induction result with BCL2 (Table 2b) is on record as “− (− Indicates less than 2 fold induction)”. In the assay with DDIT3 (Table 2a), the DDIT3 gene induction entry is on record as “+ (+ indicates a induction of greater than 2 fold)”. Moreover, the GCLM gene induction entry in the assay on GCLM (Table 2a) was “− (− Indicates less than 2 fold induction)”. In the assay on HMOX (Table 2b), the HMOX gene induction result is “+ (+ indicates a induction of greater than 2 fold)”. The HSPA1a gene induction result in the assay on HSPA1a (Table 2b) is recorded as “+ (+ indicates a induction of greater than 2 fold)”. For the same compound, in the assay with HspA5 (Table 2b), the HspA5 gene induction entry is “− (− Indicates less than 2 fold induction)”. Moreover, the TUB1 gene induction result in the assay with TUB1 (Table 2a) is recorded as “− (− Indicates less than 2 fold induction)”.

`N#CC1=C(N)NC2=C(C(=O)CC(c3ccccc3)C2)C1c1ccc(F)cc1` (centres unmarked) [drawing 27/NH2/CN/p-F/H]: the “Lucif (luciferase activity induction)” value in the assay with firefly luciferase (Table 2a) was “+ (+ indicates a induction of greater than 2 fold)”. Further, the BCL2 gene induction entry in the assay on BCL2 (Table 2b) was “− (− Indicates less than 2 fold induction)”. Further, the DDIT3 gene induction entry with DDIT3 (Table 2a) is “+ (+ indicates a induction of greater than 2 fold)”. In the assay with GCLM (Table 2a), the GCLM gene induction result is “− (− Indicates less than 2 fold induction)”. For the same compound, the HMOX gene induction entry with HMOX (Table 2b) is given as “− (− Indicates less than 2 fold induction)”. The HSPA1a gene induction entry in the assay with HSPA1a (Table 2b) is listed as “+ (+ indicates a induction of greater than 2 fold)”. For the same compound, the HspA5 gene induction entry in the assay with HspA5 (Table 2b) was “− (− Indicates less than 2 fold induction)”. In the assay on TUB1 (Table 2a), the TUB1 gene induction result was “− (− Indicates less than 2 fold induction)”.

Turning to `CCCc1n[nH]c2c1C(c1ccccc1Br)C(C#N)=C(N)O2` (centres unmarked) [drawing 28/(CH2)2Me/2-Br], the “Lucif (luciferase activity induction)” value in the assay with firefly luciferase (Table 3a) is “+ (+ indicates a induction of greater than 2 fold)”. The BCL2 gene induction entry with BCL2 (Table 3b) is reported as “− (− Indicates less than 2 fold induction)”. Besides, the DDIT3 gene induction result in the assay on DDIT3 (Table 3a) is on record as “− (− Indicates less than 2 fold induction)”. For the same compound, the GCLM gene induction result with GCLM (Table 3a) is on record as “+ (+ indicates a induction of greater than 2 fold)”. In the assay with HMOX (Table 3b), the HMOX gene induction entry is given as “+ (+ indicates a induction of greater than 2 fold)”. Moreover, the HSPA1a gene induction result in the assay on HSPA1a (Table 3b) was “− (− Indicates less than 2 fold induction)”. In the assay with HspA5 (Table 3b), the HspA5 gene induction result is “− (− Indicates less than 2 fold induction)”. For the same compound, in the assay on TUB1 (Table 3a), the TUB1 gene induction entry was “− (− Indicates less than 2 fold induction)”.

Take `CCCc1n[nH]c2c1C(c1ccccc1C(F)(F)F)C(C#N)=C(N)O2` (centres unmarked) [drawing 28/(CH2)2Me/2-CF3 #1]: the “Lucif (luciferase activity induction)” value with firefly luciferase (Table 3a) is given as “+ (+ indicates a induction of greater than 2 fold)”. For the same compound, the BCL2 gene induction result in the assay on BCL2 (Table 3b) is recorded as “− (− Indicates less than 2 fold induction)”. Moreover, in the assay with DDIT3 (Table 3a), the DDIT3 gene induction result was “− (− Indicates less than 2 fold induction)”. The GCLM gene induction result in the assay on GCLM (Table 3a) is reported as “+ (+ indicates a induction of greater than 2 fold)”. Besides, the HMOX gene induction entry in the assay on HMOX (Table 3b) is given as “+ (+ indicates a induction of greater than 2 fold)”. Further, in the assay with HSPA1a (Table 3b), the HSPA1a gene induction entry is on record as “− (− Indicates less than 2 fold induction)”. Moreover, in the assay with HspA5 (Table 3b), the HspA5 gene induction result is listed as “− (− Indicates less than 2 fold induction)”. In addition, in the assay with TUB1 (Table 3a), the TUB1 gene induction result is on record as “− (− Indicates less than 2 fold induction)”.

As for `CCCc1n[nH]c2c1C(c1ccccc1C(F)(F)F)C(C#N)=C(N)O2` (centres unmarked) [drawing 28/(CH2)2Me/2-CF3 #2], in the assay with firefly luciferase (Table 3a), the “Lucif (luciferase activity induction)” value is reported as “+ (+ indicates a induction of greater than 2 fold)”. Also, the BCL2 gene induction entry in the assay on BCL2 (Table 3b) was “− (− Indicates less than 2 fold induction)”. In addition, the DDIT3 gene induction result in the assay on DDIT3 (Table 3a) was “− (− Indicates less than 2 fold induction)”. Moreover, the GCLM gene induction result in the assay on GCLM (Table 3a) was “+ (+ indicates a induction of greater than 2 fold)”. Further, in the assay on HMOX (Table 3b), the HMOX gene induction entry is on record as “+ (+ indicates a induction of greater than 2 fold)”. The HSPA1a gene induction entry in the assay with HSPA1a (Table 3b) is “− (− Indicates less than 2 fold induction)”. In the assay with HspA5 (Table 3b), the HspA5 gene induction result is “− (− Indicates less than 2 fold induction)”. Moreover, the TUB1 gene induction result in the assay on TUB1 (Table 3a) is reported as “− (− Indicates less than 2 fold induction)”.

Regarding `CCCc1n[nH]c2c1C(c1cc(Br)ccc1O)C(C#N)=C(N)O2` (centres unmarked) [drawing 28/(CH2)2Me/2-OH-5-Br], in the assay on firefly luciferase (Table 3a), the “Lucif (luciferase activity induction)” value is given as “+ (+ indicates a induction of greater than 2 fold)”. The BCL2 gene induction result in the assay on BCL2 (Table 3b) is “− (− Indicates less than 2 fold induction)”. The DDIT3 gene induction entry with DDIT3 (Table 3a) is reported as “− (− Indicates less than 2 fold induction)”. The GCLM gene induction entry with GCLM (Table 3a) is “+ (+ indicates a induction of greater than 2 fold)”. The HMOX gene induction result in the assay with HMOX (Table 3b) is recorded as “+ (+ indicates a induction of greater than 2 fold)”. In addition, in the assay on HSPA1a (Table 3b), the HSPA1a gene induction result was “− (− Indicates less than 2 fold induction)”. Besides, the HspA5 gene induction entry in the assay with HspA5 (Table 3b) is “− (− Indicates less than 2 fold induction)”. The TUB1 gene induction entry in the assay with TUB1 (Table 3a) is “− (− Indicates less than 2 fold induction)”.
